Results reported in PubChem BioAssay AID194 (DTP/NCI, 2004).
“And” between values parts separate entries of the source, which are not always exact repeats. Equal values may be shown once. Inconclusive results are not listed.

Tested on: BDF1 mice, B16 melanoma s.c., survival/tumor T/C
Assay: NCI In Vivo Anticancer Drug Screen. Data for tumor model B16 Melanoma (subcutaneous) in B6D2F1 (BDF1) mice
Protocol: The antitumor activity of compounds was measured in mice bearing transplantable tumors. Survival or tumor size were measured and the results are expressed as the measurement made in the treated group (T) divided by the measurement made in the vehicle treated control group (C). The tumor model used in this assay is B16 Melanoma (subcutaneous) in B6D2F1 (BDF1) mice

[1] = endpoint: median survival time, dose: 8.0 mg/kg/injection, schedule: Q01DX009 (ip), vehicle: Klucel (hydroxypropylcellulose) (HPC), higher = longer survival
[2] = endpoint: median survival time, dose: 1.0 mg/kg/injection, schedule: Q01DX009 (ip), vehicle: saline, higher = longer survival
[3] = endpoint: median survival time, dose: 2.0 mg/kg/injection, schedule: Q01DX009 (ip), vehicle: saline, higher = longer survival
[4] = endpoint: median survival time, dose: 4.0 mg/kg/injection, schedule: Q01DX009 (ip), vehicle: saline, higher = longer survival
[5] = endpoint: median survival time, dose: 8.0 mg/kg/injection, schedule: Q01DX009 (ip), vehicle: saline, higher = longer survival
[6] = endpoint: median survival time, dose: 16.0 mg/kg/injection, schedule: Q01DX009 (ip), vehicle: saline, higher = longer survival
[7] = endpoint: median survival time, dose: 100.0 mg/kg/injection, schedule: Q01DX009 (ip), vehicle: saline with Tween-80, higher = longer survival
[8] = endpoint: median survival time, dose: 400.0 mg/kg/injection, schedule: Q01DX009 (ip), vehicle: saline with Tween-80, higher = longer survival
[9] = endpoint: median survival time, dose: 32.0 mg/kg/injection, schedule: Q01DX009 (ip), vehicle: saline, higher = longer survival

CC(CN1CC(=O)NC(=O)C1)N1CC(=O)NC(=O)C1 (centres undefined)
T/C (endpoint: median survival time, dose: 6.25 mg/kg/injection, schedule: Q04DX003 (ip), vehicle: saline, higher = longer survival): 97 % of control | T/C [1]: 113 % of control | T/C (endpoint: median survival time, dose: 12.5 mg/kg/injection, schedule: Q04DX003 (ip), vehicle: saline, higher = longer survival): 97 % of control | T/C (endpoint: median survival time, dose: 15.0 mg/kg/injection, schedule: Q01DX009 (ip), vehicle: saline, higher = longer survival): 122 % of control | T/C (endpoint: median survival time, dose: 16.0 mg/kg/injection, schedule: Q01DX009 (ip), vehicle: Klucel (hydroxypropylcellulose) (HPC), higher = longer survival): 118 % of control | T/C (endpoint: median survival time, dose: 25.0 mg/kg/injection, schedule: Q04DX003 (ip), vehicle: saline, higher = longer survival): 102 % of control | T/C (endpoint: median survival time, dose: 30.0 mg/kg/injection, schedule: Q01DX009 (ip), vehicle: saline, higher = longer survival): 95 % of control | T/C (endpoint: median survival time, dose: 50.0 mg/kg/injection, schedule: Q04DX003 (ip), vehicle: saline, higher = longer survival): 111 % of control | T/C (endpoint: median survival time, dose: 60.0 mg/kg/injection, schedule: Q01DX009 (ip), vehicle: saline, higher = longer survival): 110 % of control | T/C (endpoint: median survival time, dose: 64.0 mg/kg/injection, schedule: Q01DX009 (ip), vehicle: Klucel (hydroxypropylcellulose) (HPC), higher = longer survival): 119 % of control | T/C (endpoint: median survival time, dose: 120.0 mg/kg/injection, schedule: Q01DX009 (ip), vehicle: saline, higher = longer survival): 109 % of control | T/C (endpoint: median survival time, dose: 200.0 mg/kg/injection, schedule: Q04DX003 (ip), vehicle: saline, higher = longer survival): 105 % of control | T/C (endpoint: median survival time, dose: 400.0 mg/kg/injection, schedule: Q04DX003 (ip), vehicle: saline, higher = longer survival): 120 % of control

Nc1nc([Se])c2ncn(C3OC(CO)C(O)C3O)c2n1 (centres undefined)
T/C [2]: 108 % of control | T/C [3]: 98 % of control and 121 % of control | T/C [4]: 121 % of control | T/C [5]: 108 % of control | T/C [6]: 111 % of control

O=C(O)CCCc1ccc(N(CCCl)CCCl)cc1
T/C (endpoint: median survival time, dose: 1.5 mg/kg/injection, schedule: Q01DX009 (ip), vehicle: Klucel (hydroxypropylcellulose) (HPC), higher = longer survival): 111 % of control | T/C (endpoint: median survival time, dose: 3.0 mg/kg/injection, schedule: Q01DX009 (ip), vehicle: Klucel (hydroxypropylcellulose) (HPC), higher = longer survival): 105 % of control | T/C (endpoint: median survival time, dose: 4.0 mg/kg/injection, schedule: Q01DX009 (ip), vehicle: Klucel (hydroxypropylcellulose) (HPC), higher = longer survival): 121 % of control | T/C (endpoint: median survival time, dose: 6.0 mg/kg/injection, schedule: Q01DX009 (ip), vehicle: Klucel (hydroxypropylcellulose) (HPC), higher = longer survival): 101 % of control | T/C [1]: 102 % of control | T/C (endpoint: median survival time, dose: 12.0 mg/kg/injection, schedule: Q01DX009 (ip), vehicle: Klucel (hydroxypropylcellulose) (HPC), higher = longer survival): 97 % of control | T/C (endpoint: median tumor weight (est.), dose: 4.0 mg/kg/injection, schedule: Q01DX009 (ip), vehicle: saline with Tween-80, higher = larger tumour): 61 % of control | T/C (endpoint: median tumor weight (est.), dose: 8.0 mg/kg/injection, schedule: Q01DX009 (ip), vehicle: saline with Tween-80, higher = larger tumour): 25 % of control

O=P(OCC(Br)CBr)(OCC(Br)CBr)OCC(Br)CBr (centres undefined)
T/C (endpoint: median survival time, dose: 50.0 mg/kg/injection, schedule: Q01DX009 (ip), vehicle: saline with Tween-80, higher = longer survival): 110 % of control | T/C [7]: 114 % of control | T/C (endpoint: median survival time, dose: 200.0 mg/kg/injection, schedule: Q01DX009 (ip), vehicle: saline with Tween-80, higher = longer survival): 98 % of control | T/C [8]: 105 % of control

COc1ccc(C[C@H](N)C(=O)NC2C(CO)OC(n3cnc4c(N(C)C)ncnc43)C2O)cc1 (some centres undefined)
T/C [5]: 151 % of control | T/C [6]: 96 % of control | T/C [9]: 107 % of control

Nc1n[nH]c(N)n1
T/C [7]: 93 % of control | T/C [8]: 97 % of control | T/C (endpoint: median survival time, dose: 800.0 mg/kg/injection, schedule: Q01DX009 (ip), vehicle: saline with Tween-80, higher = longer survival): 97 % of control | T/C (endpoint: median tumor weight (est.), dose: 100.0 mg/kg/injection, schedule: Q01DX009 (ip), vehicle: saline with Tween-80, higher = larger tumour): 100 % of control | T/C (endpoint: median tumor weight (est.), dose: 800.0 mg/kg/injection, schedule: Q01DX009 (ip), vehicle: saline with Tween-80, higher = larger tumour): 154 % of control

Cc1c(N)nc([C@H](CC(N)=O)NC[C@H](N)C(N)=O)nc1C(=O)N[C@H](C(=O)N[C@H](C)[C@@H](O)CC(=O)N[C@H](C(=O)NC(O[C@@H]1O[C@@H](C)[C@@H](N)[C@@H](O)[C@H]1O)C(O)c1nc(-c2nc(C(=O)NCCCCN)cs2)cs1)[C@@H](C)O)[C@@H](O[C@@H]1O[C@@H](CO)[C@@H](O)[C@H](O)[C@@H]1O[C@H]1O[C@H](CO)[C@@H](O)[C@H](OC(N)=O)[C@@H]1O)c1c[nH]cn1 (some centres undefined)
T/C (endpoint: median survival time, dose: 0.12 mg/kg/injection, schedule: Q01DX009 (ip), vehicle: water, higher = longer survival): 109 % of control | T/C (endpoint: median survival time, dose: 0.25 mg/kg/injection, schedule: Q01DX009 (ip), vehicle: water, higher = longer survival): 89 % of control | T/C [2]: 180 % of control | T/C [3]: 180 % of control | T/C (endpoint: median survival time, dose: 2.0 mg/kg/injection, schedule: Q01DX009 (ip), vehicle: water, higher = longer survival): 91 % of control | T/C [4]: 180 % of control | T/C [5]: 206 % of control | T/C (endpoint: median survival time, dose: 12.0 mg/kg/injection, schedule: Q01DX009 (ip), vehicle: saline, higher = longer survival): 174 % of control | T/C [6]: 180 % of control

COc1ccc(CCN2C(=O)CSC2=S)cc1OC
T/C (endpoint: median survival time, dose: 25.0 mg/kg/injection, schedule: Q01DX009 (ip), vehicle: Klucel (hydroxypropylcellulose) (HPC), higher = longer survival): 120 % of control | T/C (endpoint: median survival time, dose: 50.0 mg/kg/injection, schedule: Q01DX009 (ip), vehicle: Klucel (hydroxypropylcellulose) (HPC), higher = longer survival): 123 % of control | T/C (endpoint: median survival time, dose: 100.0 mg/kg/injection, schedule: Q01DX009 (ip), vehicle: Klucel (hydroxypropylcellulose) (HPC), higher = longer survival): 116 % of control

Cc1cc(OCc2nc(N)nc(N)c2-c2ccc(Cl)c(Cl)c2)ccc1NS(=O)(=O)c1cccc(S(=O)(=O)F)c1
T/C (endpoint: median survival time, dose: 117.0 mg/kg/injection, schedule: Q04DX003 (ip), vehicle: saline, higher = longer survival): 95 % of control | T/C (endpoint: median survival time, dose: 176.0 mg/kg/injection, schedule: Q04DX003 (ip), vehicle: saline, higher = longer survival): 118 % of control

COC(=O)Nc1cccc(-c2nc3ccc(NC(=O)OC)cc3c(=O)n2-c2ccccc2)c1
T/C (endpoint: median survival time, dose: 50.0 mg/kg/injection, schedule: Q04DX005 (ip), vehicle: other, higher = longer survival): 99 % of control | T/C (endpoint: median survival time, dose: 100.0 mg/kg/injection, schedule: Q04DX005 (ip), vehicle: other, higher = longer survival): 115 % of control | T/C (endpoint: median survival time, dose: 100.0 mg/kg/injection, schedule: Q04DX005 (oral), vehicle: other, higher = longer survival): 102 % of control | T/C (endpoint: median survival time, dose: 200.0 mg/kg/injection, schedule: Q04DX005 (oral), vehicle: other, higher = longer survival): 94 % of control

COc1cccc2c1C(=O)c1c(O)c3c(c(O)c1C2=O)C[C@@](O)(/C(C)=N/NC(=O)c1ccccc1)C[C@@H]3OC1CC(N)C(O)C(C)O1 (some centres undefined)
T/C (endpoint: median survival time, dose: 3.0 mg/kg/injection, schedule: Q01DX009 (ip), vehicle: saline, higher = longer survival): 103 % of control | T/C [4]: 118 % of control | T/C (endpoint: median survival time, dose: 6.0 mg/kg/injection, schedule: Q01DX009 (ip), vehicle: saline, higher = longer survival): 121 % of control | T/C (endpoint: median survival time, dose: 15.0 mg/kg/injection, schedule: Q04DX003 (ip), vehicle: saline, higher = longer survival): 103 % of control | T/C (endpoint: median survival time, dose: 30.0 mg/kg/injection, schedule: Q01DX001 (ip), vehicle: saline, higher = longer survival): 93 % of control

CC(=O)Oc1ccccc1C(=O)O
T/C [9]: 95 % of control | T/C (endpoint: median survival time, dose: 64.0 mg/kg/injection, schedule: Q01DX009 (ip), vehicle: saline, higher = longer survival): 88 % of control | T/C (endpoint: median survival time, dose: 256.0 mg/kg/injection, schedule: Q01DX009 (ip), vehicle: saline, higher = longer survival): 116 % of control
